From US20180146698A1, “FORMULA FEED FOR POULTRY” (JXTG Nippon Oil & Energy Corporation, priority 2015, published 2018)

Columns and labels:
[1] = tested on: chickens; assay: Chicken egg color enhancement test 2: yolk color fan value, feeds with corn contents of 30% to 50%; assay type: in vivo
Method: The effects of the present invention were confirmed using feeds with corn contents of 30% to 50% in the same manner as in Example 1. Formula feeds were prepared by adding astaxanthin or t-capsanthin to feeds with the compositions listed in Table 5 so as to result in a final concentration of 1 to 16 ppm. In this Example, the feeds were the same except the corn content and the content of brown rice, which is added depending on a decrease in the corn content, and corn-derived corn gluten meal was not mixed therein. FIGS. 8a and 8b show the relationship between the astaxanthin and t-capsanthin concentrations in the feeds with corn contents of 30% and 50% and the yolk color fan values for the obtained eggs. Based on the results of FIGS. 8a and 8b, the concentrations of astaxanthin and t-capsanthin to be added to a feed in order to achieve a desired color fan value of 10 to 15 were calculated for feeds with corn contents of 30% and 50% (Table 6).

[2] = tested on: Julia Light hens; assay: Chicken egg color enhancement test 1: yolk color fan value, low- and standard-corn-content feed; assay type: in vivo, chickens
Method: A preparation of dry cells of a Paracoccus bacterium (with an astaxanthin content of 2%) and a paprika colorant preparation (with a t-capsanthin content of 0.25%) were used as coloring agents for evaluation. Cells of a nitrosoguanidine mutant strain obtained from the Paracoccus carotinifaciens E-396 strain (FERM BP-4283) were used as carotenoid-producing Paracoccus bacterial cells for a preparation of dry cells of a Paracoccus bacterium. The preparation was cultured in a seed flask medium and then cultured in a main culture medium at 28° C. under aerobic conditions until the bacterial cell concentration reached the maximum level. Next, the cultured cells were collected and recovered using a centrifuge. The recovered Paracoccus bacterial cells were dried using a double drum dryer at a drum rotation speed of 3.5 rpm and a drum temperature of 140° C. The average particle size (volume particle size D50) of the obtained power was approximately […]. The powder was further finely powderized (pulverized) using a jet mill (Seishin Enterprise Co., Ltd.) so that the average particle size (D50) became 9 μm. The obtained product was used as a preparation of dry cells of a Paracoccus bacterium. As a paprika colorant preparation, Color Up (a product with a total xanthophyll concentration of 5 g/kg, Kohkin Chemical Co., Ltd.) was used. The above preparations were added to a low-corn-content feed and a standard-corn-content feed listed in Table 1, thereby preparing formula feeds each containing astaxanthin or t-capsanthin at a final concentration of 1, 2, 4, or 8 ppm. Table 2 lists measured concentrations of astaxanthin and t-capsanthin contained in the actually produced formula feeds. Julia Light hens were used for tests. Ten chickens were provided for each test plot. The acclimatization period was set to 2 weeks. Eggs collected in Week 2, during which the color fan value became stabilized, or later, were evaluated. Eggs were collected from each test plot. The color fan values of 10 chicken eggs were measured using Egg Multitester EMT-7300 (JA Z-Tamago Co., Ltd.) for each test plot. The yolk carotenoid concentration was determined for 3 eggs for each test plot. FIGS. 1 and 2 show the relationship between the concentrations of astaxanthin and t-capsanthin in both feeds and the yolk color fan values of the obtained eggs. Based on the results of FIGS. 1 and 2, the concentrations of astaxanthin and t-capsanthin to be added to the low-corn-content feed in order to achieve a desired color fan value of 10 to 15 were calculated (Table 3). For example, in order to achieve a color fan value of 13, astaxanthin may be added to the low-corn-content feed so as to result in a final concentration of 2.2 ppm. Meanwhile, t-capsanthin needs to be added so as to result in a final concentration of 4.3 ppm.

[3] = tested on: chickens; assay: Yolk color measurement using colorimeter 2 (eggs of Example 8); assay type: in vivo; settings: 2 ppm or 4 ppm; corn contents of 0% to 30%
Method: The yolk color of eggs obtained in Example 8 was measured using a colorimeter (CM-700d, Konica Minolta Inc.). FIGS. 14a to 14c show the measurement results of the L*, a*, and b* values, respectively.

**Q.** With `CC1=C(/C=C/C(C)=C/C=C/C(C)=C/C=C/C=C(C)/C=C/C=C(C)/C=C/C(=O)[C@]2(C)C[C@@H](O)CC2(C)C)C(C)(C)C[C@H](O)C1` (relative stereo) [t-Capsanthin, trans-capsanthin, reference compound] as the molecule, how does the “Colorant concentration in feed to achieve desired CF value” ([1]; desired CF value 10, 30% Corn feed) read?
**A.** 2.1 ppm

**Q.** And the “Colorant concentration in feed to achieve desired CF value” ([1]; desired CF value 10, 50% Corn feed)?
**A.** 2.4 ppm

**Q.** And the “Colorant concentration in feed to achieve desired CF value” ([1]; desired CF value 11, 30% Corn feed)?
**A.** 2.8 ppm

**Q.** And the “Colorant concentration in feed to achieve desired CF value” ([1]; desired CF value 11, 50% Corn feed)?
**A.** 3.1 ppm

**Q.** What about the “Colorant concentration in feed to achieve desired CF value” ([1]; desired CF value 12, 30% Corn feed) of the same molecule?
**A.** 3.6 ppm

**Q.** What about the “Colorant concentration in feed to achieve desired CF value” ([1]; desired CF value 12, 50% Corn feed) of the same molecule?
**A.** 4.0 ppm

**Q.** And the “Colorant concentration in feed to achieve desired CF value” ([1]; desired CF value 13, 30% Corn feed)?
**A.** 4.7 ppm

**Q.** What about the “Colorant concentration in feed to achieve desired CF value” ([1]; desired CF value 13, 50% Corn feed) of the same molecule?
**A.** 5.2 ppm

**Q.** And the “Colorant concentration in feed to achieve desired CF value” ([1]; desired CF value 14, 30% Corn feed)?
**A.** 6.4 ppm

**Q.** What about the “Colorant concentration in feed to achieve desired CF value” ([1]; desired CF value 14, 50% Corn feed) of the same molecule?
**A.** 6.8 ppm

**Q.** What about the “Colorant concentration in feed to achieve desired CF value” ([1]; desired CF value 15, 30% Corn feed) of the same molecule?
**A.** 9.8 ppm

**Q.** And the “Colorant concentration in feed to achieve desired CF value” ([1]; desired CF value 15, 50% Corn feed)?
**A.** 9.7 ppm

**Q.** And the “change of color fan value, low-corn-content vs standard-corn-content feed” value ([2]; colorant added at 4 ppm)?
**A.** did not increase

**Q.** And the CF value ([2]; colorant added at 4 ppm, low-corn-content feed)?
**A.** 12.2

**Q.** And the CF value ([2]; colorant added at 4 ppm, standard-corn-content feed)?
**A.** 12.7

**Q.** What about the “Colorant concentration in feed necessary for achieving the desired CF value” (from here on “Colorant concentration in feed necessary”) ([2]; desired CF value 10, low-corn-content feed) of the same molecule?
**A.** 1.8 ppm

**Q.** And the “Colorant concentration in feed necessary” value ([2]; desired CF value 11, low-corn-content feed)?
**A.** 2.4 ppm

**Q.** And the “Colorant concentration in feed necessary” value ([2]; desired CF value 12, low-corn-content feed)?
**A.** 3.2 ppm

**Q.** What about the “Colorant concentration in feed necessary” value ([2]; desired CF value 13, low-corn-content feed) of the same molecule?
**A.** 4.3 ppm

**Q.** And the “Colorant concentration in feed necessary” value ([2]; desired CF value 14, low-corn-content feed)?
**A.** 6.0 ppm

**Q.** What about the “a* value (red color) of yolk in relation to corn content” value [3] of the same molecule?
**A.** increased in proportional to the corn content
